From ChEMBL document CHEMBL6178016, “Design, Synthesis, and Biological Evaluation of New PDE4 Inhibitors for the Treatment of Pressure Ulcers” (J Med Chem, 2025)
pIC50: −log10 of the molar value. Active and inactive are the calls of the source. No cut-off for these calls is given here.

How the values were obtained:
[1] = C0 in Sprague-Dawley rat at 5 mg/kg, iv; type: ADME, organism-based; conditions: in vivo
[2] = Acute toxicity in female Kunming mouse assessed as effect on pathological changes in kidney at 500 to 4000 mg/kg measured after 14 days by H and E staining based analysis; type: organism-based; conditions: in vivo, 336 h, dose 500-4000 mg/kg, time 14 day
[3] = Acute toxicity in female Kunming mouse assessed as effect on pathological changes in liver at 500 to 4000 mg/kg measured after 14 days by H and E staining based analysis; type: organism-based; conditions: in vivo, 336 h, dose 500-4000 mg/kg, time 14 day
[4] = tested on: Rattus norvegicus; test: Antiinflammatory activity against male Sprague-Dawley rat pressure ulcer model assessed as appearance of thinner epidermal layer at 0.625 to 2.5% administered as ointment by H and E staining based analysis; type: functional, organism-based
[5] = AUC (0 to infinity) in Sprague-Dawley rat at 5 mg/kg, iv; type: ADME, organism-based; conditions: in vivo
[6] = tested on: Rattus norvegicus; test: Antiinflammatory activity against male Sprague-Dawley rat pressure ulcer model assessed as increase in number of fibroblasts at 0.625 to 2.5% administered as ointment by Masson staining based analysis; type: functional, organism-based
[7] = target: Dual 3',5'-cyclic-AMP and -GMP phosphodiesterase 11A (Homo sapiens, UniProt Q9HCR9); test: Inhibition of PDE11A (unknown origin)
Dual 3',5'-cyclic-AMP and -GMP phosphodiesterase 11A, sequence (Q9HCR9 whole entry): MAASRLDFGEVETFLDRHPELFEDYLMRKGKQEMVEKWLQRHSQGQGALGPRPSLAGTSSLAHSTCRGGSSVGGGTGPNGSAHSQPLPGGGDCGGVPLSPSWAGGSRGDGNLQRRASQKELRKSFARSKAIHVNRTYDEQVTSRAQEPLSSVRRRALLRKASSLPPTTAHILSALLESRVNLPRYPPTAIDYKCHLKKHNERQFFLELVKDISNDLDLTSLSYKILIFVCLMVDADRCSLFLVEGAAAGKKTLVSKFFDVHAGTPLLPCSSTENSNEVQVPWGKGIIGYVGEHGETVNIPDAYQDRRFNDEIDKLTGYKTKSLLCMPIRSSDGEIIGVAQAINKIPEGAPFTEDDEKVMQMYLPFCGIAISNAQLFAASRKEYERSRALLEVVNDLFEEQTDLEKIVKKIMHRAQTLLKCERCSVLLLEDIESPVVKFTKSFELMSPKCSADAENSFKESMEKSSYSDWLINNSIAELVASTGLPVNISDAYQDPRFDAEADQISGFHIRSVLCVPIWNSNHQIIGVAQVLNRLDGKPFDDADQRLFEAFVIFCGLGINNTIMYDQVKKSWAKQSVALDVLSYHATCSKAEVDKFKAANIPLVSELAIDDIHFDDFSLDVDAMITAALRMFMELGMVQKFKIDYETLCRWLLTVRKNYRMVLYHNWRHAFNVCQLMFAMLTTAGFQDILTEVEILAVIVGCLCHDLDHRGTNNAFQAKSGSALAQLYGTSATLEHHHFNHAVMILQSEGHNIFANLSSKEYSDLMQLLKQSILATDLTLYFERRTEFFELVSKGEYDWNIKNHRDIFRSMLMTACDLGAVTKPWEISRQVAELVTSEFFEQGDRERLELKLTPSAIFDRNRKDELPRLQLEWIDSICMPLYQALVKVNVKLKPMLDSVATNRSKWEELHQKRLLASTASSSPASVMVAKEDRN

[8] = Acute toxicity in male Kunming mouse assessed as effect on pathological changes in spleen at 500 to 4000 mg/kg measured after 14 days by H and E staining based analysis; type: organism-based; conditions: in vivo, 336 h, dose 500-4000 mg/kg, time 14 day
[9] = target: Cytochrome P450 2C19 (Homo sapiens, UniProt P33261); test: Inhibition of human CYP2C19; type: ADME
Cytochrome P450 2C19, sequence (P33261 whole entry): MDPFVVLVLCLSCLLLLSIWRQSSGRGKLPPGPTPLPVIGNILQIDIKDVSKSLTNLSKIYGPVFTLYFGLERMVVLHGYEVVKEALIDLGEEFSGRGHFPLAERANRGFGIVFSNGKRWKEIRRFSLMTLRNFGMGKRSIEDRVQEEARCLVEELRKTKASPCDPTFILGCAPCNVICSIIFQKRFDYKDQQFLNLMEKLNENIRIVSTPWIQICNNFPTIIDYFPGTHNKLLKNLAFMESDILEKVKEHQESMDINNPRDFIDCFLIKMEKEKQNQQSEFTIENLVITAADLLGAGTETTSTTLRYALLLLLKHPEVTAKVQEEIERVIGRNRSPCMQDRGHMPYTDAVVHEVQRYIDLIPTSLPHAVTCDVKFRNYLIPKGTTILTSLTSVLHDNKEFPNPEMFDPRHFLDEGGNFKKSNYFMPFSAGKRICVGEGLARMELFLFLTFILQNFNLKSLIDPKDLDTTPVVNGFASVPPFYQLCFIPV

[10] = target: High affinity cAMP-specific and IBMX-insensitive 3',5'-cyclic phosphodiesterase 8A (Homo sapiens, UniProt O60658); test: Inhibition of PDE8A (unknown origin)
High affinity cAMP-specific and IBMX-insensitive 3',5'-cyclic phosphodiesterase 8A, sequence (O60658 whole entry): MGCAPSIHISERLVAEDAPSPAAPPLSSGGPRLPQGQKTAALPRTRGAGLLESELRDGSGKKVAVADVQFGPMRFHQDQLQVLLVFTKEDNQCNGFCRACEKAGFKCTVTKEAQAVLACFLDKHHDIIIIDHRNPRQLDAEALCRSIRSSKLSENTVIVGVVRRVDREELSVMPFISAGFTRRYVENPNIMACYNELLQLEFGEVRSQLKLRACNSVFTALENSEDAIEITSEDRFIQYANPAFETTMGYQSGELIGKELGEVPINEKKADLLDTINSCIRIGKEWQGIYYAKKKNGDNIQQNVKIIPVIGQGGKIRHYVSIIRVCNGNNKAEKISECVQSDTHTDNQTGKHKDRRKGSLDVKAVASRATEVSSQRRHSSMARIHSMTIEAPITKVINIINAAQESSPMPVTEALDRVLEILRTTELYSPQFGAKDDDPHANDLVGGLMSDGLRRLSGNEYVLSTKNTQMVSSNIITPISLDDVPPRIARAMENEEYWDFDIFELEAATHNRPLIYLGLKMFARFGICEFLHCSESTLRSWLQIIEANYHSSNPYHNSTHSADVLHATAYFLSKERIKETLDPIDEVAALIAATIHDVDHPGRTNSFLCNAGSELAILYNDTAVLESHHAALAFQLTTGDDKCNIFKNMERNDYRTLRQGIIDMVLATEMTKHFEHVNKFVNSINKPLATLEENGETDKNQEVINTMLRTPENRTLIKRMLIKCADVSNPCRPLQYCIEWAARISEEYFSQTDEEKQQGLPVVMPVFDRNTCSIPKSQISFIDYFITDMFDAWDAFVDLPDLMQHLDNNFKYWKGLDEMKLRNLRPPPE

[11] = target: High affinity cGMP-specific 3',5'-cyclic phosphodiesterase 9A (Homo sapiens, UniProt O76083); test: Inhibition of PDE9A (unknown origin)
High affinity cGMP-specific 3',5'-cyclic phosphodiesterase 9A, sequence (O76083 whole entry): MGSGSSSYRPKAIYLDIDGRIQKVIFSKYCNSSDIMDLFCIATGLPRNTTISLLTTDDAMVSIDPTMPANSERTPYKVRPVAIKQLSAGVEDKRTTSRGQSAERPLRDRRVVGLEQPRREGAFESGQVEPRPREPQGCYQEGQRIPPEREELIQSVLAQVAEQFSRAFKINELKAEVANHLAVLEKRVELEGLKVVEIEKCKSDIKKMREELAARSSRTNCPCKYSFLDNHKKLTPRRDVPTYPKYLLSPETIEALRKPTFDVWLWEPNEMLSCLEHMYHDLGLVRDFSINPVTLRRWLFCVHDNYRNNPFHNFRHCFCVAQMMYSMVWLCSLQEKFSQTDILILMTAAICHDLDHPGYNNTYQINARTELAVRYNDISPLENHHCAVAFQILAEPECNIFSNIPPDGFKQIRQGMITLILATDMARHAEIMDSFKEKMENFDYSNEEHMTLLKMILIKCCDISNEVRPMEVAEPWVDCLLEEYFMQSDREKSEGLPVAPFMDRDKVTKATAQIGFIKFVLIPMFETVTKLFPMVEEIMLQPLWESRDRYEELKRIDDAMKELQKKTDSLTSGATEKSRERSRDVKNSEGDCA

[12] = Oral bioavailability in Sprague-Dawley rat at 10 mg/kg; type: ADME, organism-based; conditions: in vivo
[13] = tested on: Rattus norvegicus; test: Antiinflammatory activity against male Sprague-Dawley rat pressure ulcer model assessed as wound healing rate at 0.625% administration as ointment measured after 7 days (reference value: 70%); type: functional; conditions: time 7 day
[14] = tested on: RAW264.7; test: Antiinflammatory activity against mouse RAW264.7 cells assessed as increase in cAMP expression at 5 to 20 uM by […] analysis; type: functional, cell-based; conditions: dose 5-20 µM
[15] = Apparent volume of distribution in Sprague-Dawley rat at 5 mg/kg, iv; type: ADME, organism-based; conditions: in vivo, read-out: Vz
[16] = Clearance in Sprague-Dawley rat at 5 mg/kg, iv; type: ADME, organism-based; conditions: in vivo
[17] = target: 3',5'-cyclic-AMP phosphodiesterase 4D (Homo sapiens, UniProt Q08499); test: Inhibition of PDE4D (unknown origin) at 1 uM relative to control
3',5'-cyclic-AMP phosphodiesterase 4D, sequence (Q08499 whole entry): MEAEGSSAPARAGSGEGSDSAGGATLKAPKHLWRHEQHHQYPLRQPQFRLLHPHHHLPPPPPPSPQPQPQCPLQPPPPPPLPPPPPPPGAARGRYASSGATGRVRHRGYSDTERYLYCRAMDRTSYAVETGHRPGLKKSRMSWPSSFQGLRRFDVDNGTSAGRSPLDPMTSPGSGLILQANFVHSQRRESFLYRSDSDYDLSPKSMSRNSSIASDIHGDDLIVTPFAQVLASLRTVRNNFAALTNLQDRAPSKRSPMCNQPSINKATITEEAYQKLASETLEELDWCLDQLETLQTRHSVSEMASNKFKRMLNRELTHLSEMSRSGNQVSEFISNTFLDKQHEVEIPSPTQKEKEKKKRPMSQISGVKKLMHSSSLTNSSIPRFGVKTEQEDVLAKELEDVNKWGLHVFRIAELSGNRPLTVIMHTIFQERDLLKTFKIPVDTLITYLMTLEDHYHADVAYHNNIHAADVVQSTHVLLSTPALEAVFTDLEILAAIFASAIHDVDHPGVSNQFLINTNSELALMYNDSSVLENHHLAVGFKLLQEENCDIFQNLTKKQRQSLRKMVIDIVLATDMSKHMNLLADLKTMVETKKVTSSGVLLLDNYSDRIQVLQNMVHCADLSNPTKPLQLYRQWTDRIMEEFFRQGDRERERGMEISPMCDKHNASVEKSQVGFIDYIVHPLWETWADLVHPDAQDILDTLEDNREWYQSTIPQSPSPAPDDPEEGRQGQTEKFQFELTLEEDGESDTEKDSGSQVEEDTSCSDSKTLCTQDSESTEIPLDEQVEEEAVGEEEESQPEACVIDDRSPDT

[18] = tested on: Mus musculus; test: Antiallodynic activity in female C57/BL mouse assessed as increase in response latency at 60 mg/kg, ip measured after 3 to 7 days by hot plate method; type: functional, organism-based; conditions: time 3-7 day
[19] = AUC (0 to t) in Sprague-Dawley rat at 5 mg/kg, iv; type: ADME, organism-based; conditions: in vivo
[20] = tested on: RAW264.7; test: Antiinflammatory activity against mouse RAW264.7 cells assessed as inhibition of LPS-induced NO release preincubated for 2 hrs followed by LPS stimulation and measured after 4 hrs by RT-PCR analysis; type: functional, cell-based
[21] = AUC (0 to t) in Sprague-Dawley rat at 10 mg/kg, po; type: ADME, organism-based; conditions: in vivo
[22] = tested on: Rattus norvegicus; test: Antiinflammatory activity against male Sprague-Dawley rat pressure ulcer model assessed as reduction in IL6 mRNA expression in skin at 1.25% administered as ointment by qRT-PCR analysis; type: functional, organism-based
[23] = Acute toxicity in female Kunming mouse assessed as effect on pathological changes in lung at 500 to 4000 mg/kg measured after 14 days by H and E staining based analysis; type: organism-based; conditions: in vivo, 336 h, dose 500-4000 mg/kg, time 14 day
[24] = tested on: Enterococcus faecalis; test: Antibacterial activity against Enterococcus faecalis BNCC296862 assessed as reduction in bacterial colonies growth at 512 ug/ml measured after 24 hrs by agar plate method; type: functional, organism-based; conditions: dose 512.0 µg/ml
[25] = target: cGMP-specific 3',5'-cyclic phosphodiesterase (Homo sapiens, UniProt O76074); test: Inhibition of PDE5A (unknown origin)
[26] = tested on: Rattus norvegicus; test: Antiinflammatory activity against male Sprague-Dawley rat pressure ulcer model assessed as increase in number of fibroblasts at 0.625 to 2.5% administered as ointment by H and E staining based analysis; type: functional, organism-based

SMILES: Cn1c(=O)c2c(ncn2CCC(=O)NNC(=O)c2cc3nccc(-c4ccc(OC(F)F)c(OCC5CC5)c4)n3n2)n(C)c1=O
- C0 [1]: 1.14 µg/mL
- Activity [2]: Non-toxic
- Activity [3]: Non-toxic
- Activity [4]: Active
- AUC(0-inf) [5]: 0.236 µg·h/mL
- Activity [6]: Active
- pIC50 [7]: < 4.30
- Activity [8]: Non-toxic
- pIC50 [9]: < 4.30
- pIC50 [10]: 5.77
- pIC50 [11]: < 4.30
- bioavailability [12]: 5.5%
- Activity [13]: 78%
- Activity [14]: Active
- Vd [15]: 8.79 L/kg
- clearance [16]: 21.5 L/h/kg
- inhibition [17]: 95.8%
- Activity [18]: Active
- AUC(0-t) [19]: 0.235 µg·h/mL
- pIC50 [20]: 5.63
- AUC(0-t) [21]: 0.0256 µg·h/mL
- Activity [22]: Active
- Activity [23]: Non-toxic
- Activity [24]: Active
- pIC50 [25]: < 4.30
- Activity [26]: Active
